Values after ≈ are worked out from the molar mass of the structure shown.
Assays:
[1] = Acute toxicity (DL50) i.v. in rat; assay type: in vivo; conditions: in vivo, iv, dose causing death in 50% of the animals
Description: (§1) In this table (n. 1) there are recorded the compounds described in the examples with their relative serial numbers, the acute toxicity, the antispastic activity observed in two experimental tests, one "in vivo" and one "in vitro". There are moreover recorded two therapeutic indices which take account of the toxicity of these compounds in relation to their in vivo and in vitro activity. More precisely:
(§2) A. DL50 which, as is known, is the quantity of the substance expressed in mg/kg of animal weight, capable of causing death in 50% of the animals treated.

[2] = system: cavy ileum (serotonine spasm); assay: Antispastic activity in vitro on cavy ileum, spasmiser serotonine; assay type: cell-based; conditions: Table 2; ED50 ratio
Description: (§3) C. The method in vitro is that of Magnus, with the ileum of the cavy, and is in common use for all evaluations. It consists of extracting the ileum from the cavy and placing it in a receptacle which contains nutritive liquid, suitably oxygenated, and registering the movements of the organ which remains alive for several hours if maintained at a temperature of 37°. According to the traditional method followed by us, BaCl2 is put into the bath as a spasmisant: the reaction is a violent contraction of the organ. This contraction can be prevented by adding beforehand pharmaceuticals which inhibit spasms, and in this case our compounds.
(§4) The activities which have been described so far both in vitro and in vivo can be confirmed using different animals or different organs. These activities are further improved if, instead of BaCl2 other spasmisers are used, such as serotoninehistamine and oxytocine (see Table 2).
(§5) The values contained in the table are expressed as comparison between the
(§6) substance being studied, and they therefore express the activity of the
(§7) compounds compared with known, very active substances.

[3] = system: intestinal transit of the charcoal; assay: Vegetable carbon (charcoal) intestinal transit test in vivo; set-up: species or system rat; conditions: for ED50: Rattus norvegicus, iv, 2 h, read-out: Antisp. activity in transit test: ED50; for ED50 / Antisp. activity in transit test: ED50: i.v., rat, charcoal test, 2 hours
Description: B. The vegetable carbon method in vivo (charcoal method) which consists of administering by oral means to rats, which have fasted for 24 hours, 0.3ml/per rate of a mixture consisting of: 10g of charcoal and 5 g of gum arabic suspended in a volume of 100 cc of H2 O as well as at the same time the substance being studied, accordingly as desired, generally i.v., s.c., oral. After two hours the animals are killed and those are taken to be negative in which the charcoal has reached the first portion of the colon and the others positive, in the sense that the substance administered has slowed down the intestinal transit of the charcoal.
In effect the animals treated with a physiological solution (checks) are all negative after two hours.
D. I.T.1 is the therapeutic index under the profile of the antispastic activity in vivo, and it is obtained by recording the DL50 (column 2) with the ED50 of the charcoal test (column 3).

[4] = system: rat uterus (oxytocine spasm); assay: Antispastic activity in vitro on rat uterus, spasmiser oxytocine; assay type: cell-based; conditions: Table 2; ED50 ratio
Text: as §4, §5, §6, §7

[5] = system: bile ducts (sphincter of Oddi); assay: Perfusion outflow of bile ducts (bile duct spasm by morphine); assay type: in vivo; conditions: i.v.; CR 605 5, CR 725 10, CR 603 12.5 mg/kg; morphine 250 μg
Description: (§8) The results shown in this table were obtained by perfusing with a physiological solution, the stomach and the bile ducts respectively and collecting the liquid emerging after the pylorus and the sphineter of Oddi.

[6] = system: cavy ileum (histamine spasm); assay: Antispastic activity in vitro on cavy ileum, spasmiser histamine; assay type: cell-based; conditions: Table 2; ED50 ratio
Description: as §3, §4, §5, §6, §7

stomach and pylorus = assay: Perfusion outflow of stomach and pylorus (gastro-pyloric spasm by morphine); assay type: in vivo; conditions: i.v.; CR 605 5, CR 725 10, CR 603 12.5 mg/kg; morphine 250 μg
Description: as §8

[7] = system: ileum of a cavy (BaCl2 spasm); assay: Antispastic activity in vitro, Magnus method, cavy ileum stimulated with BaCl2; assay type: cell-based; conditions: for Antispastic activity in vitro, cavy ileum, BaCl2 (relative to papaverine = 1): Table 2, ED50 of test substance papaverine / ED50 of compound; for Antisp. activity in vitro on the ileum of a cavy by Stim. BaCl2: ED50 pap./ED50 CR: ratio to papaverine = 1, Table 1, 37°
Description: as §3
The values recorded are expressed as relation between papaverine and the ED50 of our compounds. (As is known, the ED50 is the dose which results in a 50% reduction in spastic contraction).
E. I.T.2 is the therapeutic index under the profile of the antispastic activity in vitro and is given by the product between the in vitro antispastic activity index (column 4) and the corresponding DL50 (column 2).

rat's ureter = assay: Ureter of rat in vitro; assay type: cell-based; conditions: for IC50: Rattus norvegicus, read-out: Ureter of rat in vitro ED50
Text: The in vitro evaluation was made on a rat's ureter suspended in a bath of physiological liquid according to a method similar to the Magnus method already described.

urinary bladder of a rat = assay: Urinary bladder movement of anaesthetised rat in vivo; conditions: for ED50: read-out: Urinary sac of rat in vivo ED50; for activity in the urinary tract tests: statement on the bladder and ureter tests of Table 3
Text: The in vivo evaluation was made upon the urinary bladder of a rat anaesthetised and placed in an environment heated to the animals body temperature whilst the bladder which is exposed is linked to a system which registers its movement. The pharmaceutilcals were given to the animals by intravenous means.

rat = assay: Acute toxicity (DL50) i.v. in rat; assay type: in vivo; conditions: dose causing death in 50% of the animals
Description: as §1, §2

[8] = system: caudal artery of a rat (ergotamine tartrate contraction); assay: Antispastic activity on caudal artery of rat stimulated with ergotamine tartrate; assay type: cell-based; conditions: ergotamine tartrate 350 μg/ml of perfusion liquid, 50% reduction of contraction
Description: An in vitro evaluation of this activity was made upon the caudal artery of a rat, suspended, so that one can register the variation of internal pressure, and contracted with ergotamine tartrate put in to the arterial lumen of the said vessel with a dose of 350 μg/ml of perfusion liquid.
The spasm was antagonised with the compounds being tested. The evaluation was made with ED50, i.e., a concentration of the product in the perfusion liquid expressed as μg/ml able to reduce the contraction thus induced by 50%.
Antispastic activity of some of the claimed compounds upon the caudal artery of a rat stimulated with ergotamine tartrate: values are expressed in ED50 (see specification).

[9] = system: caudal artery of a rat (electric stimulation); assay: Antispastic activity on caudal artery of rat, electrically stimulated; assay type: cell-based; conditions: 50% reduction of response to electric stimulation
Description: In another experiment the caudal artery of a rat was electrically stimulated and the pharmaceuticals were added to the bath. The activity was assessed at ED50, i.e., the quantity of pharmaceutical expressed in μg/ml of the perfusion liquid able to reduce by half the response of the electric stimulation compared with that of the checks.
Antispastic activity of some of the compounds claimed on the caudal artery of a rat, electrically stimulated: the values are expressed in ED50 (see Specification).

Row | Structure (SMILES) | LD50 [1] [mg/kg] | Antispastic activity in vitro, cavy ileum, serotonine (relative to methysergide = 1) [2] | ED50 [3] [mg/kg] | Antispastic activity in vitro, rat uterus, oxytocine (relative to papaverine = 1) [4] | Bile ducts, outflow after the 1st hour [5] [mL] | Bile ducts, outflow after the 2nd hour [5] [mL] | Antispastic activity in vitro, cavy ileum, histamine (relative to prometazine = 1) [6] | Stomach and pylorus, outflow after the 1st hour (stomach and pylorus) [mL] | Stomach and pylorus, outflow after the 2nd hour (stomach and pylorus) [mL] | Antispastic activity in vitro, cavy ileum, BaCl2 (relative to papaverine = 1) [7] | Antisp. activity in vitro on the ileum of a cavy by Stim. BaCl2: ED50 pap./ED50 CR [7] | IC50 (rat's ureter) [µg/mL] | ED50 (urinary bladder of a rat; intravenous, anaesthetised rat) [mg/kg] | further results
1 | CCCN(CCC)C(=O)C(Cc1ccc(OCCN(CC)CC)cc1)NC(=O)c1ccccc1 (racemic) [CR 605, O-(2-diethylamino-ethyl)-N-benzoyl-DL-tyrosil-di-n-propylamide] | 33.9 | 0.69 | 10.6 | 0.09 | 46.6 | 56.6 | 0.17 | 131.2 | 132.9 | 1.25 | 1.25 | 74.2 (≈ 159 µM) | 6.25 | Bile ducts, %age variation between the 1st and 2nd hour [5]: +21.5%
2 | CCCCNC(=O)C(Cc1ccc(OCCN2CCCC2)cc1)NC(=O)c1ccc(C)cc1 (racemic) [CR 651, O-(2-pyrrolidil-N'-ethyl)-N-toluoyl-DL-tyrosil-n-butylamide] | – | – | – | – | – | – | – | – | – | – | 1.60 | – | – | DL50 in a rat (rat): 34.1 mg/kg; Antisp. activity in transit test: ED50 [3]: 16.3 mg/kg; ED50, caudal artery, ergotamine tartrate [8]: 37 µg/mL (≈ 81.9 µM); ED50, caudal artery, electrically stimulated [9]: 19 µg/mL (≈ 42.1 µM)
3 | CCCN(CCC)C(=O)C(Cc1ccc(OCCN(CC)CC)cc1)NC(=O)c1ccc(Cl)cc1 (racemic) [CR 716, O-(2-diethylamino-ethyl)-N-(p-chloro-benzoyl)-DL-tyrosil-di-n-propylamide] | 56.4 | 0.74 | 26.5 | 0.06 | – | – | 0.08 | – | – | 1.58 | 1.58 | – | – | –
4 | CCCN(CCC)C(=O)C(Cc1ccc(OCCCN2CCN(C)CC2)cc1)NC(=O)c1ccc(Cl)cc1 (racemic) [CR 725, O-[3-(N"-methyl-piperazine)-N'-propyl]-N-(p-chloro-benzoyl)-DL-tyrosil-di-n-propylamide] | 62.6 | 1.2 | 12.2 | 0.18 | 49.7 | 53.2 | 0.24 | 167.2 | 165.5 | 3.20 | 3.20 | 27.3 (≈ 50.3 µM) | 8.32 | –
5 | CCCN(CCC)C(=O)C(Cc1ccc(OCCCN(C)C)cc1)NC(=O)c1ccccc1 (racemic) [CR 816, O-(3-dimethylamino-propyl)-N-benzoyl-DL-tyrosil-di-n-propylamide] | – | – | – | – | – | – | – | – | – | – | 2.00 | – | – | DL50 in a rat (rat): 16.0 mg/kg; Antisp. activity in transit test: ED50 ([3]; 120 min): 5.5 mg/kg; ED50, caudal artery, ergotamine tartrate [8]: 12 µg/mL (≈ 26.5 µM); ED50, caudal artery, electrically stimulated [9]: 7 µg/mL (≈ 15.4 µM)
6 | CN1[C@@H]2CC[C@H]1C[C@@H](OC(=O)C(CO)c1ccccc1)C2 (some centres unmarked) [Atropine, atropine, reference compound] | – | – | – | – | – | – | – | – | – | – | – | – | – | Ureter of rat in vitro ED50 (rat's ureter): inactive; activity in the urinary tract tests (urinary bladder of a rat): inactive
7 | CCCN(CCC)C(=O)C(Cc1ccc(OCCN(C)C)cc1)NC(=O)OCc1ccccc1 [CR 603, O-(2-dimethylamino-ethyl)-N-carbobenzoxy-L-tyrosil-di-n-propylamide] | 63 | 0.87 | 30.5 | 0.008 | 50.3 | 48.8 | 0.09 | 157.0 | 160.8 | 2.4 | 2.40 | 86 (≈ 183 µM) | 6.9 | IC50 ([8]; Rattus norvegicus, read-out: ED50, caudal artery, ergotamine tartrate): 105 µg/mL (≈ 224 µM); IC50 ([9]; Rattus norvegicus, read-out: ED50, caudal artery, electrically stimulated): 76 µg/mL (≈ 162 µM)
8 | CCCC[N+]1(C)C2CC(OC(=O)C(CO)c3ccccc3)CC1C1OC12 (centres unmarked) [Joscina-N-butyl-bromide] | – | – | – | – | – | – | – | – | – | – | – | – | – | Urinary sac of rat in vivo ED50 (urinary bladder of a rat; intravenous, anaesthetised rat): inactive; activity in the urinary tract tests (urinary bladder of a rat): inactive
9 | CN1CC[C@]23c4c5ccc(O)c4O[C@H]2[C@@H](O)C=C[C@H]3[C@H]1C5 [Morphine, morphine, reference compound] | – | – | – | – | – | – | – | – | – | – | – | – | – | Bile ducts, %age variation between the 1st and 2nd hour [5]: -48.3%; Stomach and pylorus, %age variation between 1st and 2nd hour (stomach and pylorus): -54.5%
10 | COc1ccc(Cc2nccc3cc(OC)c(OC)cc23)cc1OC [Papaverine, papaverine, reference compound] | 27.2 | – | 22.5 | – | – | – | – | – | – | – | 1 | 45.2 (≈ 133 µM) | 7.59 | I.T.1: DL50/ED50 in vivo ([3]; therapeutic index, DL50 / charcoal ED50, rat i.v.): 1.2
